Source: PubChem BioAssay (NCI)
Values joined by “and” are separate entries in the source; they are usually repeats but may differ in a detail not shown here. Identical values can stand only once.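 Dose response: 5 concentrations. Exposure: 48 h. Format: 96-well plates. Endpoint: linear interpolation; highest concentration if not reached. GI50 marks 50% less growth. TGI: total growth inhibition.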

test system: HCC-2998 colon; experiment: inhibition of tumour cell growth, NCI panel, 48 h

Compared with `CC(C)c1ccc(C(C)C(=O)N(CC2=C(C(C)c3ccccn3)c3ccccc3C2)C(C)C)cc1` (stereo unspecified), `CNC(=O)c1ccccc1Nc1nc(Nc2ccc(N3CCOCC3)cc2OC)ncc1Cl` is 7.1-fold lower in GI50: 4.52 µM for the first, 0.636 µM for the second.

`O=[N+]([O-])c1cnc(Sc2ccncn2)s1` and `O=C(Nc1ccc(I)cc1)c1cc([N+](=O)[O-])ccc1O` are within 1.5-fold of each other in GI50: 5.46 µM for the first, 3.82 µM for the second.

Going from `Cc1cc(=O)n2[nH]c(-c3ccc(C(C)(C)C)cc3)cc2n1` to `COc1c2ccoc2c(/C=C/C=O)c2oc(-c3ccccc3)cc(=O)c12`, the GI50 rises from 8.59 µM to 16.1 µM (1.9-fold).

Going from `O=C(CN1CCN(c2cc3c(cc2F)c(=O)c(C(=O)N/N=C/c2ccccc2O)cn3C2CC2)CC1)N/N=C\c1ccccc1O` to `C=C(CNCCO)[C@@H]1CC[C@]2(CO)CC[C@]3(C)[C@H](CC[C@@H]4[C@@]5(C)CCC(N)C(C)(C)[C@@H]5CC[C@]43C)[C@@H]12` (stereo partly specified), the GI50 rises from 0.615 µM to 1.98 µM (3.2-fold).

First: CC(C)c1ccc(C(C)C(=O)N(CC2=C(C(C)c3ccccn3)c3ccccc3C2)C(C)C)cc1 (stereo unspecified)
Second: Cc1nc2c(nc1C)C(=O)c1ccccc1C2=O
The TGI of the first is 2.6-fold higher: 39.1 µM for the first, 15 µM for the second.

Going from `O[C@H]1[C@H]2c3cc4c(cc3CN3CCC(=C[C@@H]1O)[C@H]23)OCO4` to `CNC(=O)c1ccccc1Nc1nc(Nc2ccc(N3CCOCC3)cc2OC)ncc1Cl`, the TGI rises from 8.84 µM to > 43.2 µM.

Going from `O=[N+]([O-])c1cnc(Sc2ccncn2)s1` to `O=C(Nc1ccc(I)cc1)c1cc([N+](=O)[O-])ccc1O`, the TGI rises from 10.7 µM to 84 µM (7.9-fold).

`Cc1cc(=O)n2[nH]c(-c3ccc(C(C)(C)C)cc3)cc2n1` and `O=C(O)c1cc(C(=O)O)cc(N2C(=O)c3ccccc3C2=O)c1` cannot be ordered by TGI: > 100 µM for the first, > 100 µM for the second.

First: COc1c2ccoc2c(/C=C/C=O)c2oc(-c3ccccc3)cc(=O)c12
Second: O=C(CN1CCN(c2cc3c(cc2F)c(=O)c(C(=O)N/N=C/c2ccccc2O)cn3C2CC2)CC1)N/N=C\c1ccccc1O
The TGI of the first is lower: 42 µM for the first, > 100 µM for the second.

For `C=C(CNCCO)[C@@H]1CC[C@]2(CO)CC[C@]3(C)[C@H](CC[C@@H]4[C@@]5(C)CCC(N)C(C)(C)[C@@H]5CC[C@]43C)[C@@H]12` (stereo partly specified), the TGI was 3.81 µM.

test system: HS 578T breast; experiment: inhibition of tumour cell growth, NCI panel, 48 h

Compared with `CCCCCCCC(=O)SCC/C=C/[C@@H]1CC(=O)NCc2cccc(n2)C2=N[C@@](C)(CS2)C(=O)N[C@@H](C(C)C)C(=O)N1`, `CC(C)c1ccc(C(C)C(=O)N(CC2=C(C(C)c3ccccn3)c3ccccc3C2)C(C)C)cc1` (stereo unspecified) is 4.9-fold higher in GI50: 0.378 µM for the first, 1.84 µM for the second.

Going from `C[C@@H](CS(C)(=O)=O)Nc1ncc2cc(Oc3ccc(F)cc3F)c(=O)n(C)c2n1` to `CNC(=O)c1ccccc1Nc1nc(Nc2ccc(N3CCOCC3)cc2OC)ncc1Cl`, the GI50 falls from > 25 µM to 1.7 µM.

Compared with `COc1cc2c(c(OC)c1O)C(=O)C(OC)C(c1ccc(O)c(O)c1)O2` (stereo unspecified), `COc1c2ccoc2c(/C=C/C=O)c2oc(-c3ccccc3)cc(=O)c12` is 81-fold higher in GI50: 0.0889 µM for the first, 7.2 µM for the second.

`Cn1ccnc1C(=O)/C=C/c1ccc(CC(=O)Nc2ccc(Br)cc2)cc1` and `COc1ccc2c(c1)C(=O)/C(=C/c1ccc(OCC(=O)Nc3nccs3)cc1)O2` are within 1.5-fold of each other in GI50: 7.83 µM for the first, 9.23 µM for the second.

Compared with `CCOC(=O)Nc1nc2ccc(OCC)cc2s1`, `Cc1cnc(NC(=O)C(Cc2ccccc2)NC(=O)c2ccccc2)s1` (stereo unspecified) is 8.5-fold lower in GI50: 56.7 µM for the first, 6.69 µM for the second.

`O=[N+]([O-])c1cnc(Sc2ccncn2)s1` and `O=C(Nc1ccc(I)cc1)c1cc([N+](=O)[O-])ccc1O` are within 1.5-fold of each other in GI50: 2.37 µM for the first, 3.13 µM for the second.

First: Cc1cc(=O)n2[nH]c(-c3ccc(C(C)(C)C)cc3)cc2n1
Second: O=C(CN1CCN(c2cc3c(cc2F)c(=O)c(C(=O)N/N=C/c2ccccc2O)cn3C2CC2)CC1)N/N=C\c1ccccc1O
The GI50 of the first is 2.3-fold lower: 3.74 µM for the first, 8.57 µM for the second.

Work on `C=C(CNCCO)[C@@H]1CC[C@]2(CO)CC[C@]3(C)[C@H](CC[C@@H]4[C@@]5(C)CCC(N)C(C)(C)[C@@H]5CC[C@]43C)[C@@H]12` (stereo partly specified) yielded a GI50 of 2.33 µM.

Compared with `CCCCCCCC(=O)SCC/C=C/[C@@H]1CC(=O)NCc2cccc(n2)C2=N[C@@](C)(CS2)C(=O)N[C@@H](C(C)C)C(=O)N1`, `CC(C)c1ccc(C(C)C(=O)N(CC2=C(C(C)c3ccccn3)c3ccccc3C2)C(C)C)cc1` (stereo unspecified) is lower in TGI: > 33.3 µM for the first, 13.6 µM for the second.

Compared with `C[C@@H](CS(C)(=O)=O)Nc1ncc2cc(Oc3ccc(F)cc3F)c(=O)n(C)c2n1`, `Cc1nc2c(nc1C)C(=O)c1ccccc1C2=O` is lower in TGI: > 25 µM for the first, 6.47 µM for the second.

Compared with `COc1cc2c(c(OC)c1O)C(=O)C(OC)C(c1ccc(O)c(O)c1)O2` (stereo unspecified), `COc1c2ccoc2c(/C=C/C=O)c2oc(-c3ccccc3)cc(=O)c12` is higher in TGI: 46.1 µM for the first, > 100 µM for the second.

`Cn1ccnc1C(=O)/C=C/c1ccc(CC(=O)Nc2ccc(Br)cc2)cc1` and `COc1ccc2c(c1)C(=O)/C(=C/c1ccc(OCC(=O)Nc3nccs3)cc1)O2` cannot be ordered by TGI: > 16.7 µM for the first, > 63.8 µM for the second.

Going from `CCOC(=O)Nc1nc2ccc(OCC)cc2s1` to `Cc1cnc(NC(=O)C(Cc2ccccc2)NC(=O)c2ccccc2)s1` (stereo unspecified), the TGI falls from > 100 µM to 35.3 µM.

`O[C@H]1[C@H]2c3cc4c(cc3CN3CCC(=C[C@@H]1O)[C@H]23)OCO4` and `CNC(=O)c1ccccc1Nc1nc(Nc2ccc(N3CCOCC3)cc2OC)ncc1Cl` cannot be ordered by TGI: > 28.4 µM for the first, > 26.4 µM for the second.

Going from `O=[N+]([O-])c1cnc(Sc2ccncn2)s1` to `O=C(Nc1ccc(I)cc1)c1cc([N+](=O)[O-])ccc1O`, the TGI rises from 5.59 µM to 29.3 µM (5.2-fold).

Going from `Cc1cc(=O)n2[nH]c(-c3ccc(C(C)(C)C)cc3)cc2n1` to `O=C(O)c1cc(C(=O)O)cc(N2C(=O)c3ccccc3C2=O)c1`, the TGI rises from 33.3 µM to > 100 µM.

Compared with `O=C(CN1CCN(c2cc3c(cc2F)c(=O)c(C(=O)N/N=C/c2ccccc2O)cn3C2CC2)CC1)N/N=C\c1ccccc1O`, `C=C(CNCCO)[C@@H]1CC[C@]2(CO)CC[C@]3(C)[C@H](CC[C@@H]4[C@@]5(C)CCC(N)C(C)(C)[C@@H]5CC[C@]43C)[C@@H]12` (stereo partly specified) is lower in TGI: > 100 µM for the first, 6.92 µM for the second.

In the case of `COC(=O)[C@@H](C)C[C@H](Cc1ccc(F)cc1)NC(=O)c1csc([C@@H](C[C@H](C(C)C)N(C)C(=O)[C@@H](NC(=O)[C@H]2CCCCN2C)C(C)C)OC(C)=O)n1`, the GI50 is reported as 0.00102 µM and 0.00612 µM.

test system: K-562 leukemia; experiment: inhibition of tumour cell growth, NCI panel, 48 h

Going from `CCCCCCCC(=O)SCC/C=C/[C@@H]1CC(=O)NCc2cccc(n2)C2=N[C@@](C)(CS2)C(=O)N[C@@H](C(C)C)C(=O)N1` to `CC(C)c1ccc(C(C)C(=O)N(CC2=C(C(C)c3ccccn3)c3ccccc3C2)C(C)C)cc1` (stereo unspecified), the GI50 rises from 0.658 µM to 2.39 µM (3.6-fold).

Going from `C[C@@H](CS(C)(=O)=O)Nc1ncc2cc(Oc3ccc(F)cc3F)c(=O)n(C)c2n1` to `CNC(=O)c1ccccc1Nc1nc(Nc2ccc(N3CCOCC3)cc2OC)ncc1Cl`, the GI50 falls from > 25 µM to 4.75 µM.

Going from `COc1cc2c(c(OC)c1O)C(=O)C(OC)C(c1ccc(O)c(O)c1)O2` (stereo unspecified) to `COc1c2ccoc2c(/C=C/C=O)c2oc(-c3ccccc3)cc(=O)c12`, the GI50 rises from 0.048 µM to 3.21 µM (67-fold).

First: Cn1ccnc1C(=O)/C=C/c1ccc(CC(=O)Nc2ccc(Br)cc2)cc1
Second: COc1ccc2c(c1)C(=O)/C(=C/c1ccc(OCC(=O)Nc3nccs3)cc1)O2
The GI50 of the first is 2.1-fold higher: 3.88 µM for the first, 1.84 µM for the second.

First: CCOC(=O)Nc1nc2ccc(OCC)cc2s1
Second: Cc1cnc(NC(=O)C(Cc2ccccc2)NC(=O)c2ccccc2)s1 (stereo unspecified)
The GI50 of the first is 12-fold lower: 3.17 µM for the first, 37.2 µM for the second.

Going from `O=[N+]([O-])c1cnc(Sc2ccncn2)s1` to `O=C(Nc1ccc(I)cc1)c1cc([N+](=O)[O-])ccc1O`, the GI50 rises from 1.31 µM to 4.69 µM (3.6-fold).

First: Cc1cc(=O)n2[nH]c(-c3ccc(C(C)(C)C)cc3)cc2n1
Second: O=C(CN1CCN(c2cc3c(cc2F)c(=O)c(C(=O)N/N=C/c2ccccc2O)cn3C2CC2)CC1)N/N=C\c1ccccc1O
The GI50 of the first is 17-fold higher: 6.72 µM for the first, 0.389 µM for the second.

With `C=C(CNCCO)[C@@H]1CC[C@]2(CO)CC[C@]3(C)[C@H](CC[C@@H]4[C@@]5(C)CCC(N)C(C)(C)[C@@H]5CC[C@]43C)[C@@H]12` (stereo partly specified) the GI50 was 1.48 µM.

`CCCCCCCC(=O)SCC/C=C/[C@@H]1CC(=O)NCc2cccc(n2)C2=N[C@@](C)(CS2)C(=O)N[C@@H](C(C)C)C(=O)N1` and `COC(=O)[C@@H](C)C[C@H](Cc1ccc(F)cc1)NC(=O)c1csc([C@@H](C[C@H](C(C)C)N(C)C(=O)[C@@H](NC(=O)[C@H]2CCCCN2C)C(C)C)OC(C)=O)n1` cannot be ordered by TGI: > 33.3 µM for the first, > 16.7 µM for the second.

`C[C@@H](CS(C)(=O)=O)Nc1ncc2cc(Oc3ccc(F)cc3F)c(=O)n(C)c2n1` and `Cc1nc2c(nc1C)C(=O)c1ccccc1C2=O` cannot be ordered by TGI: > 25 µM for the first, 32.1 µM for the second.

`COc1cc2c(c(OC)c1O)C(=O)C(OC)C(c1ccc(O)c(O)c1)O2` (stereo unspecified) and `COc1c2ccoc2c(/C=C/C=O)c2oc(-c3ccccc3)cc(=O)c12` cannot be ordered by TGI: > 100 µM for the first, > 100 µM for the second.

`Cn1ccnc1C(=O)/C=C/c1ccc(CC(=O)Nc2ccc(Br)cc2)cc1` and `O=C(Nc1ccc(I)cc1)c1cc([N+](=O)[O-])ccc1O` cannot be ordered by TGI: > 16.7 µM for the first, > 100 µM for the second.

`CCOC(=O)Nc1nc2ccc(OCC)cc2s1` and `Cc1cnc(NC(=O)C(Cc2ccccc2)NC(=O)c2ccccc2)s1` (stereo unspecified) cannot be ordered by TGI: > 100 µM for the first, > 100 µM for the second.

Going from `CC(C)c1ccc(C(C)C(=O)N(CC2=C(C(C)c3ccccn3)c3ccccc3C2)C(C)C)cc1` (stereo unspecified) to `CNC(=O)c1ccccc1Nc1nc(Nc2ccc(N3CCOCC3)cc2OC)ncc1Cl`, the TGI rises from 15 µM to > 90.5 µM.

Going from `O[C@H]1[C@H]2c3cc4c(cc3CN3CCC(=C[C@@H]1O)[C@H]23)OCO4` to `O=C(CN1CCN(c2cc3c(cc2F)c(=O)c(C(=O)N/N=C/c2ccccc2O)cn3C2CC2)CC1)N/N=C\c1ccccc1O`, the TGI rises from 12 µM to > 100 µM.

First: O=[N+]([O-])c1cnc(Sc2ccncn2)s1
Second: Cc1cc(=O)n2[nH]c(-c3ccc(C(C)(C)C)cc3)cc2n1
The TGI of the first is lower: 3.8 µM for the first, > 100 µM for the second.

Going from `O=C(O)c1cc(C(=O)O)cc(N2C(=O)c3ccccc3C2=O)c1` to `C=C(CNCCO)[C@@H]1CC[C@]2(CO)CC[C@]3(C)[C@H](CC[C@@H]4[C@@]5(C)CCC(N)C(C)(C)[C@@H]5CC[C@]43C)[C@@H]12` (stereo partly specified), the TGI falls from > 100 µM to 3.33 µM.
